This note sets out measurements from patent US20260184663A1, “INDENE COMPOUNDS, PHARMACEUTICAL COMPOSITIONS THEREOF, AND THEIR THERAPEUTIC APPLICATIONS” (NucMito Pharmaceuticals co. Ltd., priority 2022, published 2026).

Like-named read-outs stand apart in the source and are kept apart here.

Common to all, as to assay type: cell-based
The test system of assay [1] is B16F10 (malignant melanoma). Nature of the assay: Antiproliferative activity (CCK-8 cell viability), B16F10. The conditions noted are these: Mus musculus, 72 h, read-out: Antiproliferative activity in cancerous cells, B16F10 (inhibition of cell growth); for inhibition at 3.3 µM: B16-F10, Compound concentration: 3.3 μM; for inhibition at 10 µM: B16-F10, Compound concentration: 10 μM; for inhibition at 30 µM: B16-F10, Compound concentration: 30 μM. A digest of the protocol: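 Attached B16F10 cells in 96-well plates were incubated with compound at 37° C for 72 h, followed by 10 μL CCK-8 reagent per well and a further 4 h incubation. A multi-well plate reader measured absorbance at 450 nm. Percent viability across replicates was calculated against DMSO vehicle-treated cells.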

Assay [2] has as its system MDA-MB-231 (breast cancer). Nature of the assay: Antiproliferative activity (CCK-8 cell viability), MDA-MB-231. The conditions noted are these: Homo sapiens, 72 h, read-out: Antiproliferative activity in cancerous cells, MDA-MB-231 (inhibition of cell growth); for inhibition at 3.3 µM: Compound concentration: 3.3 μM; for inhibition at 10 µM: Compound concentration: 10 μM; for inhibition at 30 µM: Compound concentration: 30 μM. A digest of the protocol: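 In this CCK-8 viability assay, MDA-MB-231 cells maintained in Dulbecco's modified Eagle's medium containing 10% fetal bovine serum were placed in 96-well plates (2,000-5,000 cells/well) and treated with compound for 72 h at 37° C. A 4 h incubation with 10 μL CCK-8 followed, plates were read at 450 nm, and viability was expressed against DMSO vehicle wells across replicates.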

Assay [3] deals with A549 (lung adenocarcinoma). Nature of the assay: Antiproliferative activity (CCK-8 cell viability), A549. The conditions noted are these: Homo sapiens, 72 h, read-out: Antiproliferative activity in cancerous cells, A549 (inhibition of cell growth); for inhibition at 3.3 µM: Compound concentration: 3.3 μM; for inhibition at 10 µM: Compound concentration: 10 μM; for inhibition at 30 µM: Compound concentration: 30 μM. In outline:
(§1)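 Cells were seeded at 2,000-5,000/well (HeLa in MEM, HepG2 and SW480 in DMEM, A549 in F-12K, all with 10% FBS) and treated with compound at 3.3, 10 or 30 μM for 72 h at 37° C. CCK-8 was added for 4 h, absorbance was read at 450 nm, and viability was expressed relative to DMSO-treated wells.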

For assay [4], the system named is A431 (epidermoid carcinoma). The assay is described as follows: Antiproliferative activity (CCK-8 cell viability), A431. The conditions noted are these: Homo sapiens, 72 h, read-out: Antiproliferative activity in cancerous cells, A431 (inhibition of cell growth); for inhibition at 3.3 µM: A-431, Compound concentration: 3.3 μM; for inhibition at 10 µM: A-431, Compound concentration: 10 μM; for inhibition at 30 µM: A-431, Compound concentration: 30 μM. A digest of the protocol:
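Cell viability of compound-treated A431 cells was measured with a Cell Counting Kit-8. Each well received 10 μL of CCK-8 after 72 h of compound exposure, followed by 4 h incubation at 37° C. and a 450 nm plate-reader measurement. Percent viability was calculated relative to DMSO controls across replicates.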

The next assay concerns HeLa (cervical cancer). The assay is described as follows: Antiproliferative activity (CCK-8 cell viability), HeLa. The conditions noted are these: Homo sapiens, 72 h, read-out: Antiproliferative activity in cancerous cells, HELA (inhibition of cell growth); for inhibition at 3.3 µM: Compound concentration: 3.3 μM; for inhibition at 10 µM: Compound concentration: 10 μM; for inhibition at 30 µM: Compound concentration: 30 μM. A digest of the protocol:
as §1

The test system of the next assay is HepG2 (liver cancer). The assay is described as follows: Antiproliferative activity (CCK-8 cell viability), HepG2. To be noted: Homo sapiens, 72 h, read-out: Antiproliferative activity in cancerous cells, HepG2 (inhibition of cell growth); for inhibition at 3.3 µM: Compound concentration: 3.3 μM; for inhibition at 10 µM: Compound concentration: 10 μM; for inhibition at 30 µM: Compound concentration: 30 μM. In outline:
as §1

The subject of a further assay is SW480 (colon cancer). The assay is described as follows: Antiproliferative activity (CCK-8 cell viability), SW480. The conditions noted are these: Homo sapiens, 72 h; for inhibition at 3.3 µM: Compound concentration: 3.3 μM; for inhibition at 10 µM: Compound concentration: 10 μM; for inhibition at 30 µM: Compound concentration: 30 μM. A digest of the protocol:
as §1

Setting [5] is: read-out: Antiproliferative activity in cancerous cells, SW480 (inhibition of cell growth).

As to `CC1=C(CC(=O)O)c2cc(F)ccc2/C1=C\c1cccc(S(=O)(=O)c2ccc(F)cc2)c1` [C44, (Z)-2-(5-Fluoro-1-(3-((4-fluorophenyl)sulfonyl)benzylidene)-2-methyl-1H-inden-3-yl)acetic acid], the inhibition at 3.3 µM in assay [1] was below 30%; in assay [2] it was at least 50%; in assay [3], below 30%; in assay [4] it was at least 50%; in the assay with HeLa (cervical cancer) it was below 30%; in the assay on HepG2 (liver cancer), below 30%. In addition, the inhibition at 3.3 µM in the assay with SW480 (colon cancer) (setting [5]) was below 30%. In addition, the inhibition at 10 µM was 30 to 50% in assay [1]; at least 50% in assay [2]; 30 to 50% in assay [3]; 30 to 50% in assay [4]; at least 50% with HeLa (cervical cancer); at least 50% in the assay with HepG2 (liver cancer). The inhibition at 10 µM in the assay with SW480 (colon cancer) (setting [5]) was in the range of 30 to 50%.
`CC1=C(CC(=O)O)c2cc(F)ccc2/C1=C\c1ccc(Oc2ccc(Cl)cc2)cc1F` [C78, (Z)-2-(1-(4-(4-Chlorophenoxy)-2-fluorobenzylidene)-5-fluoro-2-methyl-1H-inden-3-yl)acetic acid]: the inhibition at 3.3 µM in assay [1] is below 30%; in assay [2], at least 50%; in assay [3], at least 50%; in assay [4], below 30%; in the assay with HeLa (cervical cancer), below 30%; in the assay with HepG2 (liver cancer), below 30%. The inhibition at 3.3 µM in the assay with SW480 (colon cancer) (setting [5]) was below 30%. For the same molecule, the inhibition at 10 µM (in assay [1]; in assay [2]; in assay [3]; in assay [4]; in the assay on HeLa (cervical cancer); in the assay on HepG2 (liver cancer)) was at least 50% throughout. Besides, in the assay with SW480 (colon cancer) (setting [5]), the inhibition at 10 µM fell in the range of 30 to 50%.
For the molecule `CC1=C(CC(=O)O)c2cc(F)ccc2/C1=C\c1ccc(Cc2cc3ccccc3o2)cc1` [C311, (Z)-2-(1-(4-(Benzofuran-2-ylmethyl)benzylidene)-5-fluoro-2-methyl-1H-inden-3-yl)acetic acid], the inhibition at 3.3 µM in assay [1] is at least 50%; in assay [2], below 30%; in assay [3], below 30%; in assay [4], 30 to 50%; in the assay on HeLa (cervical cancer) it was below 30%; in the assay with HepG2 (liver cancer) it was at least 50%. In addition, the inhibition at 3.3 µM in the assay on SW480 (colon cancer) (setting [5]) is below 30%. Also, the inhibition at 10 µM in assay [1] is at least 50%; in assay [2], at least 50%; in assay [3] it was below 30%; in assay [4], 30 to 50%; in the assay with HeLa (cervical cancer) it was below 30%; with HepG2 (liver cancer) it was at least 50%. For the same molecule, the inhibition at 10 µM in the assay on SW480 (colon cancer) (setting [5]) is below 30%. For the same molecule, the inhibition at 30 µM in assay [1] was at least 50%; in assay [2], at least 50%; in assay [3], below 30%; in assay [4], 30 to 50%; in the assay with HeLa (cervical cancer), 30 to 50%; in the assay with HepG2 (liver cancer), at least 50%. Further, in the assay with SW480 (colon cancer) (setting [5]), the inhibition at 30 µM was below 30%.
With `CC1=C(CC(=O)O)c2cc(F)ccc2/C1=C\c1ccc(OCCc2ccccc2)cc1` [B30, (Z)-2-(5-Fluoro-2-methyl-1-(4-phenethoxybenzylidene)-1H-inden-3-yl)acetic acid], the inhibition at 3.3 µM in assay [1] is below 30%; in assay [2] it was below 30%; in assay [3], 30 to 50%; in assay [4], at least 50%; in the assay on HeLa (cervical cancer), below 30%; with HepG2 (liver cancer) it was below 30%. For the same molecule, the inhibition at 3.3 µM in the assay on SW480 (colon cancer) (setting [5]) is below 30%. For the same molecule, the inhibition at 10 µM in assay [1] is below 30%; in assay [2], at least 50%; in assay [3], at least 50%; in assay [4], at least 50%; with HeLa (cervical cancer) it was at least 50%; in the assay with HepG2 (liver cancer), at least 50%. Moreover, in the assay with SW480 (colon cancer) (setting [5]), the inhibition at 10 µM is at least 50%.
For the molecule `CC1=C(CC(=O)O)c2cc(F)ccc2/C1=C\c1ccc(Oc2ccc(Cl)cc2)cc1` [C60, (Z)-2-(1-(4-(4-Chlorophenoxy)benzylidene)-5-fluoro-2-methyl-1H-inden-3-yl)acetic acid], the inhibition at 3.3 µM is 30 to 50% in assay [1]; below 30% in assay [2]; 30 to 50% in assay [3]; at least 50% in assay [4]; at least 50% with HeLa (cervical cancer); at least 50% in the assay with HepG2 (liver cancer). The inhibition at 3.3 µM in the assay with SW480 (colon cancer) (setting [5]) is below 30%. The inhibition at 10 µM in assay [1] is 30 to 50%; in assay [2], below 30%; in assay [3], at least 50%; in assay [4] it was at least 50%; in the assay on HeLa (cervical cancer), at least 50%; in the assay on HepG2 (liver cancer), at least 50%. Moreover, in the assay with SW480 (colon cancer) (setting [5]), the inhibition at 10 µM was below 30%. Also, in the assay on SW480 (colon cancer) (read-out: Antiproliferative activity in cancerous cells, SW480), the inhibition at 30 µM fell in the range of 30 to 50%.
With `CC1=C(CC(=O)O)c2cc(Cl)ccc2/C1=C\c1ccc(CCCc2ccc(F)cc2)cc1` [B125, (Z)-2-(5-Chloro-1-(4-(3-(4-fluorophenyl)propyl)benzylidene)-2-methyl-1H-inden-3-yl)acetic acid], the inhibition at 3.3 µM in assay [1] is at least 50%; in assay [2], 30 to 50%; in assay [3] it was below 30%; in assay [4] it was at least 50%; in the assay on HeLa (cervical cancer) it was at least 50%; with HepG2 (liver cancer), at least 50%. Besides, the inhibition at 3.3 µM with SW480 (colon cancer) (setting [5]) is below 30%. Moreover, the inhibition at 10 µM (in assay [1]; in assay [2]; in assay [3]; in assay [4]; in the assay on HeLa (cervical cancer); in the assay on HepG2 (liver cancer)) was at least 50% each time. Further, the inhibition at 10 µM with SW480 (colon cancer) (setting [5]) was at least 50%.
Regarding `CC1=C(CC(=O)O)c2c(Cl)cc(Cl)cc2/C1=C/c1ccc(Oc2ccc(F)cc2)cc1` [E33, (E)-2-(4,6-Dichloro-1-(4-(4-fluorophenoxy)benzylidene)-2-methyl-1H-inden-3-yl)acetic acid], the inhibition at 3.3 µM is at least 50% in assay [1]; below 30% in assay [2]; below 30% in assay [3]; at least 50% in assay [4]; 30 to 50% in the assay on HeLa (cervical cancer); below 30% with HepG2 (liver cancer). Also, the inhibition at 3.3 µM in the assay on SW480 (colon cancer) (setting [5]) is below 30%. For the same molecule, the inhibition at 10 µM (in assay [1]; in assay [2]; in assay [3]; in assay [4]; with HeLa (cervical cancer); with HepG2 (liver cancer)) was at least 50% each time. For the same molecule, in the assay with SW480 (colon cancer) (setting [5]), the inhibition at 10 µM lay within 30 to 50%. Moreover, the inhibition at 30 µM (in assay [1]; in assay [2]; in assay [3]; in assay [4]; in the assay on HeLa (cervical cancer); with HepG2 (liver cancer)) was at least 50% in each case. Also, the inhibition at 30 µM with SW480 (colon cancer) (setting [5]) is at least 50%.
